The values that follow are results of earlier work, collected in US20120202218A1, “DETECTION METHOD AND DEVICE BASED ON NANOPARTICLE AGGREGATION” (MODPRO AB, priority 2008, published 2012).

The target of one data set is Fab57P. To be noted: binding to Fab57P, literature.
The conditions of data set [1]: neutral pH.

As to H-CRGTGSYNRSSFESSSGLV-NH2 [C-pTMVP], the Kd at Fab57P is around 1 nM.
Consider “H2N-NAADLEKAIEALEKHLEAKGPCDAAQLEKQLEQAFEAFERAG-COOH (H-NAADLEKAIEALEKHLEAKGPCDAAQLEKQLEQAFEAFERAG-OH) [JR2EC]”, for which the net charge in data set [1] was −5.

One may read the Kd as the concentration at which binding is half-saturated.
